Where two headings read alike, the source gives them in different places.
Experiments:
HTT = assay: HiBiT protein abundance assay, HTT (K562 HiBiT knock-in); format: cell-based, human; conditions: HiBiT knock-in K562 cells, 24 hours, top dose 10 μM
Outline: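 K562 HiBiT knock-in, 24 h, 37 °C, top 10 μM final, 3-fold ×10, DMSO ≤0.25%. Lytic HiBiT luminescence; PC = parental K562, NC = DMSO; 4PL IC50.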

K562 cells = assay: Cell Titer Glo 2.0 cell viability (toxicity) assay, K562; conditions: 500 cells/well, 72 hours
Target C = assay: HiBiT protein abundance assay, Target C (K562 HiBiT knock-in); format: cell-based, human; conditions: HiBiT knock-in K562 cells, 24 hours, top dose 10 μM
Outline: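 K562 HiBiT knock-in cells (10000/well) were treated 24 h at 37° C with a 10-point 3-fold dilution series (top 10 μM final, ≤0.25% DMSO). HiBiT luminescence was read after lytic LgBiT detection. Percent response used unmodified K562 and DMSO-treated knock-in controls, and IC50 came from a four-parameter fit at 50% of untreated.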

HTT mRNA = assay: RT-qPCR splicing assay, HTT mRNA canonical (CJ) and alternative (AJ) junction; format: cell-based, human; conditions: Homo sapiens; for AC50: HTT alternative junction mRNA, read-out: HTT AJ (increase in AJ mRNA, AC50)
Outline: (§1)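 Both isoforms, CJ and AJ, read by qPCR from crude lysates of treated A673 or K562 cells; 24 h, 37 °C, maximum 10 uM. Normalization: housekeeper ΔCt, then DMSO ΔΔCt.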

SMN2 mRNA = assay: RT-qPCR splicing assay, SMN2 mRNA; format: cell-based, human; conditions: Homo sapiens, canonical junction qPCR panel, Table 4; read-out: SMN2 IC50 (decrease in CJ mRNA levels)
Outline: as §1

[1] = HTT canonical junction mRNA, RT-qPCR, read-out: HTT CJ (decrease in CJ mRNA levels, IC50)
[2] = canonical junction qPCR panel, Table 4, read-out: HTT IC50 (decrease in CJ mRNA levels)

SMILES | IC50 (HTT) [nM] | Effect of Exemplary Compounds on Cell Viability, K562 (K562 cells) | IC50 (Target C) [nM] | AC50 (HTT mRNA; RT-qPCR) [nM] | IC50 (HTT mRNA; [1]) [nM] | IC50 (HTT mRNA; [2]) [nM] | IC50 (SMN2 mRNA) [nM]
Cn1cc2cc(-c3ccc4nc(N5CCC(NC(C)(C)C)C5)ncc4n3)c(O)cc2n1 (stereo not drawn) [Compound 404, 5-{2-[3-(tert-butylamino)pyrrolidin-1-yl]pyrido[3,2-d]pyrimidin-6-yl}-2-methylindazol-6-ol] | < 100 | B (B represents 100-1000 nM) | < 100 | < 100 | < 100 | < 100 | < 100
COc1cc(-c2ccc3nc(N4CCC(NC(C)(C)C)C4)ncc3n2)cnn1 (stereo not drawn) [Compound 405, N-tert-butyl-1-[6-(6-methoxypyridazin-4-yl)pyrido[3,2-d]pyrimidin-2-yl]pyrrolidin-3-amine] | 1000 to 10000 | C (C represents 1000-9999 nM) | 1000 to 10000 | 1000 to 10000 | 1000 to 10000 | 1000 to 10000 | 1000 to 10000
CN[C@H]1CCN(c2ccc3nc(-c4cc(C#N)c5nc(C)cn5c4)ncc3n2)C1 [Compound 406, 2-methyl-6-{6-[(3S)-3-(methylamino)pyrrolidin-1-yl]pyrido[3,2-d]pyrimidin-2-yl}imidazo[1,2-a]pyridine-8-carbonitrile] | 1000 to 10000 | B (B represents 100-1000 nM) | 1000 to 10000 | 1000 to 10000 | 100 to 1000 | 100 to 1000 | 100 to 1000
CN[C@@H]1CCN(c2ccc3nc(-c4cc(C#N)c5nc(C)cn5c4)ncc3n2)C1 [Compound 407, 2-methyl-6-{6-[(3R)-3-(methylamino)pyrrolidin-1-yl]pyrido[3,2-d]pyrimidin-2-yl}imidazo[1,2-a]pyridine-8-carbonitrile] | 100 to 1000 | B (B represents 100-1000 nM) | 1000 to 10000 | 1000 to 10000 | 100 to 1000 | 100 to 1000 | < 100
Cc1nc2cc(O)c(-c3ccc4nc(N5CCNCC5)ccc4n3)cc2o1 [Compound 408, 2-methyl-6-[6-(piperazin-1-yl)-1,5-naphthyridin-2-yl]-1,3-benzoxazol-5-ol] | 100 to 1000 | B (B represents 100-1000 nM) | 100 to 1000 | 1000 to 10000 | 100 to 1000 | 100 to 1000 | < 100
Cc1nc2cc(O)c(-c3ccc4nc(N5CCN[C@@H](C)C5)ccc4n3)cc2o1 [Compound 409] | 100 to 1000 | B (B represents 100-1000 nM) | 100 to 1000 | 100 to 1000 | 100 to 1000 | 100 to 1000 | < 100
Cc1nc2cc(O)c(-c3ccc4nc(N5CCN6CCCC6C5)ccc4n3)cc2o1 (stereo not drawn) [Compound 410] | 100 to 1000 | B (B represents 100-1000 nM) | 100 to 1000 | 100 to 1000 | 100 to 1000 | 100 to 1000 | < 100
Cc1nc2cc(O)c(-c3ccc4nc(N5CCNC6(CC6)C5)ccc4n3)cc2o1 [Compound 411] | 1000 to 10000 | C (C represents 1000-9999 nM) | 1000 to 10000 | > 10000 | 1000 to 10000 | 1000 to 10000 | < 100
Cc1nc2cc(O)c(-c3ccc4nc(N5CCC(NC(C)(C)C)CC5)ccc4n3)cc2o1 [Compound 412] | 100 to 1000 | B (B represents 100-1000 nM) | 100 to 1000 | 100 to 1000 | 100 to 1000 | 100 to 1000 | 100 to 1000
Cc1nc2cc(O)c(-c3ccc4nc(N5CC[C@@H](NC(C)(C)C)C5)ncc4n3)cc2o1 [Compound 413, 6-{2-[(3R)-3-(tert-butylamino)pyrrolidin-1-yl]pyrido[3,2-d]pyrimidin-6-yl}-2-methyl-1,3-benzoxazol-5-ol] | < 100 | B (B represents 100-1000 nM) | < 100 | < 100 | < 100 | < 100 | < 100
Cc1nc2cc(O)c(-c3ccc4nc(N5CC[C@H](NC(C)(C)C)C5)ncc4n3)cc2o1 [Compound 414, 6-{2-[(3S)-3-(tert-butylamino)pyrrolidin-1-yl]pyrido[3,2-d]pyrimidin-6-yl}-2-methyl-1,3-benzoxazol-5-ol] | 100 to 1000 | B (B represents 100-1000 nM) | 100 to 1000 | 100 to 1000 | < 100 | < 100 | 100 to 1000
Cc1nc2c(C)c(O)c(-c3ccc4nc(N5CC[C@H](NC(C)C)C5)ncc4n3)cc2o1 [Compound 416, 6-{2-[(3S)-3-(isopropylamino)pyrrolidin-1-yl]pyrido[3,2-d]pyrimidin-6-yl}-2,4-dimethyl-1,3-benzoxazol-5-ol] | < 100 | A (A represents <100 nM) | < 100 | < 100 | < 100 | < 100 | < 100
Cc1nc2cc(O)c(-c3ccc4cc(N5CC[C@@H](NC(C)(C)C)C5)ncc4n3)cc2o1 [Compound 417] | 100 to 1000 | B (B represents 100-1000 nM) | 1000 to 10000 | 1000 to 10000 | 100 to 1000 | 100 to 1000 | < 100
Cc1nc2cc(O)c(-c3ccc4nc(N5CCN[C@@H](C6CC6)C5)ccc4n3)cc2o1 [Compound 418] | 100 to 1000 | B (B represents 100-1000 nM) | 100 to 1000 | 100 to 1000 | 100 to 1000 | 100 to 1000 | 100 to 1000
Cc1nc2cc(O)c(-c3ccc4nc(N5C[C@@H](C)N[C@@H](C6CC6)C5)ccc4n3)cc2o1 [Compound 419] | 100 to 1000 | B (B represents 100-1000 nM) | 100 to 1000 | 100 to 1000 | 100 to 1000 | 100 to 1000 | < 100
Cc1nc2cc(O)c(-c3ccc4nc(N5C[C@@H](C)N[C@@H](C)C5)ccc4n3)cc2o1 [Compound 420] | 100 to 1000 | B (B represents 100-1000 nM) | 100 to 1000 | 1000 to 10000 | 100 to 1000 | 100 to 1000 | < 100
Cc1nc2cc(O)c(-c3ccc4nc(N5CCN[C@H](C6CC6)C5)ccc4n3)cc2o1 [Compound 421] | 100 to 1000 | B (B represents 100-1000 nM) | 100 to 1000 | 100 to 1000 | 100 to 1000 | 100 to 1000 | 100 to 1000
Cc1nc2cc(O)c(-c3ccc4nc(N5CCN[C@@H](C(C)C)C5)ccc4n3)cc2o1 [Compound 422] | 100 to 1000 | B (B represents 100-1000 nM) | 100 to 1000 | 100 to 1000 | 100 to 1000 | 100 to 1000 | < 100
